The results in this text go back to ChEMBL document CHEMBL3046385, “Synthesis and bioactivity of novel 3-(1-hydroxyethylidene)-5-substituted-pyrrolidine-2,4-dione derivatives” (Chin Chem Lett, 2012).

Converted amounts (≈) assume the structure as drawn.

Test [1] concerns Echinochloa crus-galli. As to the kind of experiment: Herbicidal activity against Echinochloa crus-galli (barnyard grass) assessed as root inhibition at 100 mg/l. It is filed as functional.
For test [2], the system named is Echinochloa crus-galli. The experiment in a line: Herbicidal activity against Echinochloa crus-galli (barnyard grass) assessed as stalk inhibition at 100 mg/l. It counts as functional.
The test system of test [3] is Brassica rapa subsp. oleifera. As to the kind of experiment: Herbicidal activity against Brassica rapa subsp. oleifera assessed as root inhibition at 100 mg/l. It counts as functional.
Test [4] deals with Echinochloa crus-galli. The experiment in a line: Herbicidal activity against Echinochloa crus-galli (barnyard grass) assessed as stalk inhibition. It counts as functional, organism-based.
For test [5], the system named is Brassica rapa subsp. oleifera. As to the kind of experiment: Herbicidal activity against Brassica rapa subsp. oleifera assessed as root inhibition. It is filed as functional, organism-based.

Consider `COc1ccc(CC2NC(=O)/C(=C(/C)O)C2=O)cc1` (centres undefined), for which the inhibition at 100 µg/mL was found to be 32.8% in the test with Echinochloa crus-galli [1], 41.2% with Echinochloa crus-galli [2] and 62.9% in test [3].
For `C/C(O)=C1/C(=O)NC(Cc2ccccc2Cl)C1=O` (centres undefined) the same measures were 37.3%, 35.7% and 41.8%.
As to `COc1ccc(C(=O)CC2NC(=O)/C(=C(/C)O)C2=O)cc1` (centres undefined), the figures for the inhibition at 100 µg/mL (in the test on Echinochloa crus-galli [1]; in the test on Echinochloa crus-galli [2]; in test [3]) were 61.5%, 62.6% and 45.9%, respectively. In addition, in the test with Echinochloa crus-galli [4], the EC50 is 94.4 µg/mL (≈ 326 µM).
Turning to `C/C(O)=C1/C(=O)NC(CC(=O)c2ccccc2)C1=O` (centres undefined), the results for the inhibition at 100 µg/mL (in the test on Echinochloa crus-galli [1]; in the test on Echinochloa crus-galli [2]; in test [3]) were 47.9%, 36.4% and 66.9%, respectively.
Consider `CCCCCCC1NC(=O)/C(=C(/C)O)C1=O` (centres undefined), for which the inhibition at 100 µg/mL with Echinochloa crus-galli [1] was determined as 47.8%; in the test with Echinochloa crus-galli [2], 66.9%; in test [3], 43.1%. In addition, the EC50 in the test on Echinochloa crus-galli [4] worked out at 72.7 µg/mL (≈ 323 µM).
Take `C/C(O)=C1/C(=O)NC(C/C=C/c2ccccc2)C1=O` (centres undefined): the inhibition at 100 µg/mL in the test on Echinochloa crus-galli [1] came to 54%; in the test on Echinochloa crus-galli [2], 42.5%; in test [3], 90.4%. The EC50 in test [5] was determined as 39.2 µg/mL (≈ 152 µM).
`C/C(O)=C1/C(=O)NC(Cc2ccc(Cl)cc2)C1=O` (centres undefined): the inhibition at 100 µg/mL with Echinochloa crus-galli [1] was determined as 49.6%; with Echinochloa crus-galli [2], 37.8%; in test [3], 89.7%. Also, in test [5], the EC50 was determined as 25.5 µg/mL (≈ 96 µM).
`C/C(O)=C1/C(=O)NC(Cc2ccc([N+](=O)[O-])cc2)C1=O` (centres undefined): the results for the inhibition at 100 µg/mL (in the test with Echinochloa crus-galli [1]; in the test on Echinochloa crus-galli [2]; in test [3]) were 64.3%, 41.6% and 45.7%, respectively.
The corresponding values for `C/C(O)=C1/C(=O)NC(Cc2ccc(Cl)cc2Cl)C1=O` (centres undefined) are 31.6%, 19.1% and 59.3%.
For `CCCCC1NC(=O)/C(=C(/C)O)C1=O` (centres undefined) the same measures were 38.5%, 32.3% and 46.3%.

By inhibition is commonly meant the relative decrease from the control value, in per cent. What is called EC50 is the concentration that produces a half-maximal response.
